Measured values taken from patent US20260373497A1, “MOLECULAR MACHINES STIMULATE INTERCELLULAR CALCIUM WAVES AND CAUSE MUSCLE CONTRACTION” (William Marsh Rice University, priority 2022, published 2026).
Where “and” joins values, the source holds several entries; their conditions need not be identical. Identical values can stand only once. Entries after “also recorded” stand apart in the source; their conditions may differ. Like-named read-outs stand apart in the source and are kept apart here.

Assays:
[1] = UV-Vis absorbance of motors in DMSO; format: physicochemical
Text: The UV-Vis spectrum of each motor was also acquired in DMSO (FIG. 37D) to ensure that the difference in absorbance at 400 nm was not the cause of larger or smaller responses.

[2] = Extinction coefficient by UV-Vis; format: physicochemical; details: UV-Vis in spectral-grade water, 16 μM
Description: FIG. 13—Sample UV-Vis spectra of each MM taken at 16 μM in spectral-grade water.
(§1) Table 1. Properties of MM 1-4. Partition coefficients and total polar surface area were calculated using the molInspiration online calculator. milogP represents the logarithm of the partition coefficient between octanol and water, used to represent hydrophobicity (higher values are more hydrophobic). Rotation rates were provided using the thermodynamics of the thermal helix inversion step. MM structures provided for reference.

HEK293 cells = experiment: MM-induced intracellular calcium responses (Fluo-4) after 400 nm stimulation; format: cell-based
Description: To investigate cellular responses to the actuation of MM, live-cell calcium tracking were employed. HEK293 cells were treated with the fluorescent intracellular calcium indicator Fluo-4 and loaded with MM. The structures of the MM employed in this study are shown in FIG. 1B, and the calcium responses of cells treated with fast-rotating MM 1 are shown in FIG. 1C. […] In the presence of the vehicle only, no calcium responses were evoked by the same laser treatment (FIG. 2).
Cell Culture and Preparation of Cells for Microscopy: HEK293 cells were chosen as the principal model system due to their prevalence in electrophysiological interrogation. […] HEK293 cells, HeLa cells, and N2A cells were cultured in DMEM (10% FBS, 1% penicillin/streptomycin) and passaged at <90% confluence. To grow cardiomyocytes, a dissColved rat heart (TransnetYX©) was triturated, centrifuged, and resuspended in cardiomyocyte growth medium (TransnetYX© catalog #SKU-NBCG) and seeded at a concentration of 60,000 cells cm^−2. Growth substrates were pre-treated with 1% gelatin solution for 3 h, then washed with PBS. Cardiomyocytes were allowed to grow for 4 days, after which the growth medium was exchanged for cardiomyocyte maintenance medium (TransnetYX© catalog #SKU-NBCM). Experiments were conducted from day 4 to day 6.
Imaging was conducted in imaging extracellular buffer (iECB; 119 mM NaCl, 5 mM KCl, 10 mM HEPES, 2 mM CaCl2, 1 mM MgCl2 (pH 7.2); 320 mOsm). Imaging in calcium-free medium was conducted in phosphate-buffered saline. Cells were prepared for imaging by seeding a 35 mm Ibidi imaging dish with ~50,000 cells in 1 mL of DMEM, and grown at 37 °C, 5% CO2 for 2 days. Prior to imaging, cells were incubated with dyes and/or molecules resuspended in complete growth medium at the appropriate concentration (MM 1 (8 μM), MM 2 (8 μM), MM 3 (24 μM), MM 4 (8 μM), Fluo-4 (2 μM)). MM and Fluo-4 were loaded into cells for 45 min. Cells treated with thapsigargin were exposed for 30 min after MM and Fluo-4 loading. Cells treated with organelle-targeting dyes were exposed for 5 min after MM loading. Ruthenium red and Gd^3+ were included in the imaging medium during stimulation and were associated with cells for 10 min prior to imaging. At the end of incubation, this medium was replaced with the iECB. Unless otherwise specified, all experiments were replicated in triplicate.
In Vitro Imaging and Stimulation: Cells were loaded in a Nikon A1-Rsi confocal system mounted on a widefield Ti-E fluorescence microscope. Imaging was conducted using a 60× water immersion objective (NA of 1.27, 0.17 mm working distance). Green fluorophores (Fluo-4, MitoTracker Green) were excited using a 488 nm photodiode laser. Red fluorophores (ER-Tracker-Red, PI) were excited using a 561 nm photodiode laser. Deep red fluorophores (cellMask plasma membrane stain) were excited using a 630 nm photodiode laser. Laser stimulation for in vitro experiments was performed with a 400 nm photodiode laser (Coherent OBIS™ LX SF) operating in a fluorescence-recovery-after-photobleaching (FRAP) experiment mode, delivering up to 6.4×10^2 W cm^−2 at sample level. Unless otherwise specified, all experiments were conducted using a stimulus irradiance of 3.2×10^2 W cm^−2. Cardiomyocyte experiments were conducted using a stimulus irradiance of 5.1×10^2 W cm^−2. Power was calibrated using a Thor Labs S130C laser power meter. Stimulation was targeted to a circular area of diameter 5 μm in a 250 ms pulse, during which the laser rasters across the entire region of interest. […] Fluo-4 fluorescence was collected for 30 s before and 2 min after stimulation. Images were collected using a Galvano scanner operating at 0.94 fps. In selected experiments, images were also collected using a resonant scanner operating at 7.7 fps.
Data Analysis—In Vitro: Data were analyzed using custom-written Python scripts. Fluorescence traces of calcium indicator Fluo-4 from cells were imported and processed via the Pandas library. […]

[3] = MM rotation rate (thermodynamics of the thermal helix inversion step); format: physicochemical; details: Table 1; from thermodynamics of thermal helix inversion
Description: as §1
Effects of Rotation Speed and Directionality: The propensity for unidirectional MM to rotate and exert mechanical force on their environment depend principally on two factors: the rotation rate and the photoconversion efficiency. Both of these depend on MM structure. The rotation rate is determined by the half-life of the thermal helix inversion, which is driven by the steric interactions governing the passage of the rotor over the stator (Pollard et al., 2007). The photoconversion efficiency, also known as the quantum yield of photoisomerization, or ΦP, represents the proportion of photons absorbed by the molecule that drive molecular rotation (as opposed to fluorescence or non-radiative decay processes). ΦP is primarily influenced by the electronic structure. MM directionality can also be influenced by structure, as the driving force for unidirectional rotation depends upon the presence of a stereogenic center.

[4] = cited from earlier work
[5] = 8 μM MM, 400 nm, 3.2×10^2 W cm^−2, 250 ms

Structure (SMILES)	Absorbance at 400 nm [1]	Extinction Coeff @ 400 nm [2]	Intracellular calcium response (Fluo-4) (HEK293 cells; MM 3 at 24 μM, 6.4×10^2 W cm^−2)	Rotation rate [3]	Intracellular calcium response (Fluo-4) (HEK293 cells; [5])	Decay kinetics of calcium response (HEK293 cells; 8 μM, 400 nm light, 250 ms)	Time to peak of calcium transient after stimulation (HEK293 cells; 8 μM, 400 nm light, 250 ms) [s]	Repeatability of calcium responses (HEK293 cells; 3.2×10^2 W cm^−2, 250 ms, multiple stimulations)	Light power dependence of calcium response (HEK293 cells; 250 ms pulse, 5 μm diameter)	Propagation of calcium response to adjacent cells (HEK293 cells; MM 1, 400 nm light)	Signal amplitude compared with other MM (HEK293 cells; MM 1 vs MM 2)	Rotation rate [4]
CC1Cc2cc(NCCN(C)C)c3ccccc3c2C1=C1c2ccccc2-c2ccccc21 (stereo not shown) [MM 3]	much smaller absorbance	~7,500 L mol^−1cm^−1	elicited no change in calcium activity upon irradiation; also recorded: did not elicit any noticeable responses in vitro	0.1 Hz	–	–	–	–	–	–	–	–
CC1Cc2ccc3ccccc3c2C1=C1c2ccccc2Sc2cc(NCCN(C)C)ccc21 (stereo not shown) [MM 1]	nearly identical absorbances at 400 nm	~11,000 L mol^−1cm^−1	–	3 × 10^6 Hz	increased Fluo-4 fluorescence in the targeted cell; also recorded: elicited rapid increases in intracellular calcium; also recorded: elicited the strongest signaling responses in vitro	decayed over the next minute	10 to 20	repeatable	higher response amplitude at higher irradiance	Calcium responses were observed to propagate to adjacent cells	reached a higher amplitude than those elicited by MM 2	~ 3 MHz and 3 MHz
CN(C)CCNc1ccc2c(c1)Sc1ccccc1C2=C1CCc2ccc3ccccc3c21 [MM 4]	–	~13,000 L mol^−1cm^−1	–	3 × 10^6 Hz	elicited only small changes in calcium concentration; also recorded: elicited inconsistent and weak responses	–	–	–	–	–	–	3 MHz
